Measurements reported in PubChem BioAssay AID1963976 (Molecular Pharmacology Branch, DTP, NCI, 2024).

System: 435261-313-R-J1-PDC tumor spheroid viability
Assay: Anticancer human tumor 435261-313-R-J1-PDC patient-derived colon adenocarcinoma cell line growth inhibition [PI3K]
Settings: spheroids with HUVEC and MSC; for IC50: curve of first compound; for viability, T/C: stronger effect = lower value
Procedure, shortened: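 Multi-cell spheroids combine tumor cells with HUVEC and human MSCs, treated with targeted agents alone or with inavolisib, alpelisib, duvelisib or copanlisib. Concentrations fall in half-log steps from at or near clinical Cmax, or from 10 microM where Cmax is unknown; viability read-out.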

[1] = second compound 0.00316 µM, first compound 0.0316 µM
[2] = second compound 0.00316 µM, first compound 0.1 µM
[3] = second compound 0.01 µM, first compound 0.0316 µM
[4] = second compound 0.01 µM, first compound 0.1 µM
[5] = second compound 0.0316 µM, first compound 0.0316 µM
[6] = second compound 0.0316 µM, first compound 0.1 µM
[7] = second compound 0.1 µM, first compound 0.0316 µM
[8] = second compound 0.1 µM, first compound 0.1 µM
[9] = second compound 0.316 µM, first compound 0.0316 µM
[10] = second compound 0.316 µM, first compound 0.1 µM
[11] = second compound 1 µM, first compound 0.0316 µM
[12] = second compound 1 µM, first compound 0.1 µM
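Note: spheroids exposed to compounds for 7 days.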

With `CC(C)NCC(C(=O)N1CCN(c2ncnc3c2C(C)CC3O)CC1)c1ccc(Cl)cc1` (centres undefined) + CC(Nc1ccc2c(c1)OCCn1cc(N3C(=O)OCC3C(F)F)nc1-2)C(N)=O the IC50 (second compound 0.00316 µM) was 5070 nM, the IC50 (second compound 0.01 µM) was 3750 nM and the IC50 (second compound 0.0316 µM) was 2480 nM. The IC50 (second compound 0.1 µM) was under 31.6 nM, the IC50 (second compound 0.316 µM) was under 31.6 nM and the IC50 (second compound 1 µM) was under 31.6 nM. It also gave a viability, T/C [1] of 76.3%, a viability, T/C [2] of 77.9% and a viability, T/C (second compound 0.00316 µM, first compound 0.316 µM) of 69.5%. It also gave a viability, T/C (second compound 0.00316 µM, first compound 1 µM) of 72.3%, a viability, T/C (second compound 0.00316 µM, first compound 3.16 µM) of 63.6% and a viability, T/C (second compound 0.00316 µM, first compound 10 µM) of 31.3%. It also gave a viability, T/C [3] of 88.2%, a viability, T/C [4] of 94.7% and a viability, T/C (second compound 0.01 µM, first compound 0.316 µM) of 73.6%. For the same compound, the viability, T/C (second compound 0.01 µM, first compound 1 µM) was 80.1%, the viability, T/C (second compound 0.01 µM, first compound 3.16 µM) was 54.7% and the viability, T/C (second compound 0.01 µM, first compound 10 µM) was 18.2%. For the same compound, the viability, T/C [5] was 62.3%, the viability, T/C [6] was 56.3% and the viability, T/C (second compound 0.0316 µM, first compound 0.316 µM) was 50.5%. The viability, T/C (second compound 0.0316 µM, first compound 1 µM) was 60.8%, the viability, T/C (second compound 0.0316 µM, first compound 3.16 µM) was 47.3% and the viability, T/C (second compound 0.0316 µM, first compound 10 µM) was 13.3%. The viability, T/C [7] was 48.6%, the viability, T/C [8] was 28.7% and the viability, T/C (second compound 0.1 µM, first compound 0.316 µM) was 34.8%. For the same compound, the viability, T/C (second compound 0.1 µM, first compound 1 µM) was 31.8%, the viability, T/C (second compound 0.1 µM, first compound 3.16 µM) was 24.7% and the viability, T/C (second compound 0.1 µM, first compound 10 µM) was 12.6%. For the same compound, the viability, T/C [9] was 21%, the viability, T/C [10] was 21.4% and the viability, T/C (second compound 0.316 µM, first compound 0.316 µM) was 18.4%. For the same compound, the viability, T/C (second compound 0.316 µM, first compound 1 µM) was 18.7%, the viability, T/C (second compound 0.316 µM, first compound 3.16 µM) was 19% and the viability, T/C (second compound 0.316 µM, first compound 10 µM) was 10.6%. For the same compound, the viability, T/C [11] was 18.1%, the viability, T/C [12] was 15.9% and the viability, T/C (second compound 1 µM, first compound 0.316 µM) was 13.8%. For the same compound, the viability, T/C (second compound 1 µM, first compound 1 µM) was 18.4%, the viability, T/C (second compound 1 µM, first compound 3.16 µM) was 17.1% and the viability, T/C (second compound 1 µM, first compound 10 µM) was 10.8%.

Work on `Cn1ncnc1[C@H]1c2n[nH]c(=O)c3cc(F)cc(c23)N[C@@H]1c1ccc(F)cc1` + CC(Nc1ccc2c(c1)OCCn1cc(N3C(=O)OCC3C(F)F)nc1-2)C(N)=O yielded an IC50 (second compound 0.00316 µM) of over 100 nM, an IC50 (second compound 0.01 µM) of over 100 nM and an IC50 (second compound 0.0316 µM) of 43.5 nM. For the same compound, the IC50 (second compound 0.1 µM) was 0.592 nM, the IC50 (second compound 0.316 µM) was under 0.316 nM and the IC50 (second compound 1 µM) was under 0.316 nM. For the same compound, the viability, T/C (second compound 0.00316 µM, first compound 0.000316 µM) was 105%, the viability, T/C (second compound 0.00316 µM, first compound 0.001 µM) was 88.5% and the viability, T/C (second compound 0.00316 µM, first compound 0.00316 µM) was 102%. It also gave a viability, T/C (second compound 0.00316 µM, first compound 0.01 µM) of 96.3%, a viability, T/C [1] of 83.9% and a viability, T/C [2] of 69.4%. The viability, T/C (second compound 0.01 µM, first compound 0.000316 µM) was 74.4%, the viability, T/C (second compound 0.01 µM, first compound 0.001 µM) was 85.5% and the viability, T/C (second compound 0.01 µM, first compound 0.00316 µM) was 81.7%. For the same compound, the viability, T/C (second compound 0.01 µM, first compound 0.01 µM) was 95.8%, the viability, T/C [3] was 68% and the viability, T/C [4] was 50.2%. For the same compound, the viability, T/C (second compound 0.0316 µM, first compound 0.000316 µM) was 67.4%, the viability, T/C (second compound 0.0316 µM, first compound 0.001 µM) was 81.3% and the viability, T/C (second compound 0.0316 µM, first compound 0.00316 µM) was 92.6%. The viability, T/C (second compound 0.0316 µM, first compound 0.01 µM) was 86.1%, the viability, T/C [5] was 53.6% and the viability, T/C [6] was 40.4%. The viability, T/C (second compound 0.1 µM, first compound 0.000316 µM) was 55.6%, the viability, T/C (second compound 0.1 µM, first compound 0.001 µM) was 42.9% and the viability, T/C (second compound 0.1 µM, first compound 0.00316 µM) was 41.9%. For the same compound, the viability, T/C (second compound 0.1 µM, first compound 0.01 µM) was 39.4%, the viability, T/C [7] was 36.1% and the viability, T/C [8] was 30.7%. For the same compound, the viability, T/C (second compound 0.316 µM, first compound 0.000316 µM) was 21.6%, the viability, T/C (second compound 0.316 µM, first compound 0.001 µM) was 20.8% and the viability, T/C (second compound 0.316 µM, first compound 0.00316 µM) was 26.2%. It also gave a viability, T/C (second compound 0.316 µM, first compound 0.01 µM) of 19.5%, a viability, T/C [9] of 20.6% and a viability, T/C [10] of 17.1%. The viability, T/C (second compound 1 µM, first compound 0.000316 µM) was 18.3%, the viability, T/C (second compound 1 µM, first compound 0.001 µM) was 17.5% and the viability, T/C (second compound 1 µM, first compound 0.00316 µM) was 17%. It also gave a viability, T/C (second compound 1 µM, first compound 0.01 µM) of 20.7%, a viability, T/C [11] of 20.2% and a viability, T/C [12] of 12.5%.
